Laboratory results reported in patent US6187907A, “Triple helix coil template having a biologically active ligand” (priority 1998, dated 2001).
Bridge positions count the residues as written; N and C are the ends. Square brackets hold non-standard residues; d marks the D form. Peptide text beside a SMILES is read from it. I, II: the chains in the order shown. * marks the point of attachment. Succinyl(2R-iBu,4-NHOH) = CC(C)C[C@H](CC(=O)NO)C(=O)*; Hyp = O=C(O)[C@@H]1C[C@@H](O)CN1; Ahx = NCCCCCC(=O)O

Target: Human gelatinase
Assay: Inhibition of trypsin-activated human gelatinase, fluorogenic Mca peptide substrate
Type: biochemical
Details: substrate 10 μM, 37° C., 60 minutes, 5 minutes preincubation; read-out: IC50 against activated gelatinase
Description: Human gelatinase was activated with trypsin as follows. A reaction mixture was prepared in Tris buffer (pH 7.5) containing 20 mM Tris-HCl, 0.15 N NaCl, 4 μg/ml trypsin, 3 nM gelatinase and 5 mM CaCl2. The reaction mixture was incubated at 37° C. for 60 minutes and then soybean trypsin inhibitor was added at 44 μg/ml to quench the reaction.
The substrate was added at final 10 μM and was then further incubated at 37° C. for 60 minutes. The reaction was terminated by the addition of 750 μl of 0.1 N sodium acetate buffer (pH 4.0). The hydrolysis of the substrate was assessed by fluorescence, excitation at 328 nm and emission of 393 nm, with a Perkin-Elmer Fluorimeter LS-50B.

Compound | IC50
I: {Succinyl(2R-iBu,4-NHOH)}-WGP[Hyp]GP[Hyp]GPPSGG[Ahx]KKG-NH2 / II: {Succinyl(2R-iBu,4-NHOH)}-WGP[Hyp]GP[Hyp]GPPSGG[Ahx] / III: {Succinyl(2R-iBu,4-NHOH)}-WGP[Hyp]GP[Hyp]GPPSGG[Ahx] (amide I:15-II:C, I:16-III:C) [NHT2-L] | 0.024 µM
CC(C)C[C@H](CC(=O)NO)C(=O)N[C@@H](Cc1c[nH]c2ccccc12)C(=O)NCC(=O)N1CCC[C@H]1C(=O)N1C[C@H](O)C[C@H]1C(=O)NCC(=O)N1CCC[C@H]1C(=O)N1CCC[C@H]1C(=O)N[C@@H](CO)C(=O)NCC(=O)NCC(=O)NCCCCCC(=O)NCCCC[C@H](NC(=O)CCCCCNC(=O)CNC(=O)CNC(=O)[C@H](CO)NC(=O)[C@@H]1CCCN1C(=O)[C@@H]1CCCN1C(=O)CNC(=O)[C@@H]1C[C@@H](O)CN1C(=O)[C@@H]1CCCN1C(=O)CNC(=O)[C@H](Cc1c[nH]c2ccccc12)NC(=O)[C@@H](CC(=O)NO)CC(C)C)C(=O)N[C@@H](CCCCNC(=O)CCCCCNC(=O)CNC(=O)CNC(=O)[C@H](CO)NC(=O)[C@@H]1CCCN1C(=O)[C@@H]1CCCN1C(=O)CNC(=O)[C@@H]1C[C@@H](O)CN1C(=O)[C@@H]1CCCN1C(=O)CNC(=O)[C@H](Cc1c[nH]c2ccccc12)NC(=O)[C@@H](CC(=O)NO)CC(C)C)C(=O)NCC(N)=O [NHT1-L] (I: {Succinyl(2R-iBu,4-NHOH)}-WGP[Hyp]GPPSGG[Ahx]KKG-NH2 / II: {Succinyl(2R-iBu,4-NHOH)}-WGP[Hyp]GPPSGG[Ahx] / III: {Succinyl(2R-iBu,4-NHOH)}-WGP[Hyp]GPPSGG[Ahx]; amide I:12-II:C, I:13-III:C) | 0.0023 µM
